Read-outs that look alike come from different tables or passages of the source.
Tests used:
[1] = system: p21 induction in HCT 116 cells; assay: p21 induction in cells (In-Cell Western, p21/GAPDH ratio); format: cell-based; conditions: 24 h compound incubation, read-out: p21_EC50
Procedure, shortened: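 HCT 116 cells treated 24 h at 37° C with 11-point, 2-fold dilutions typically from 10 μM, in duplicate. Fixed cells co-stained for p21 (800 nm) and GAPDH (700 nm) by In-Cell Western. p21/GAPDH ratio normalised between DMSO and reference WRN inhibitor controls, and EC50 obtained by nonlinear regression.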

[2] = biological target: human Werner helicase (WRN, amino acids 517-1235 with L1074F point mutation) (Homo sapiens (Human), UniProt Q14191, L1074F); assay: WRN (BV08) ADP-Glo assay; format: biochemical; conditions: human WRN (aa 517-1235, L1074F), read-out: ADP-Glo_hWRN_IC50
Procedure, shortened: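 Untagged WRN 517-1235 (L1074F), Sf9/baculovirus-expressed, 0.15 nM, preincubated 15 min with compound, then 5 μM ATP and 0.1 nM annealed DNA duplex added; 60 min at 25 °C in Bicine pH 7.5, 1 mM MgCl2, 1% DMSO. ADP-Glo luminescence; % inhibition vs DMSO and 20 μM NSC-617145 controls, four-parameter IC50 fit.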

human Werner helicase (WRN, amino acids 517-1235 with L1074F point mutation), sequence (Q14191 other isoform, or with tags, fused parts or gaps L1074F (already in the parent)): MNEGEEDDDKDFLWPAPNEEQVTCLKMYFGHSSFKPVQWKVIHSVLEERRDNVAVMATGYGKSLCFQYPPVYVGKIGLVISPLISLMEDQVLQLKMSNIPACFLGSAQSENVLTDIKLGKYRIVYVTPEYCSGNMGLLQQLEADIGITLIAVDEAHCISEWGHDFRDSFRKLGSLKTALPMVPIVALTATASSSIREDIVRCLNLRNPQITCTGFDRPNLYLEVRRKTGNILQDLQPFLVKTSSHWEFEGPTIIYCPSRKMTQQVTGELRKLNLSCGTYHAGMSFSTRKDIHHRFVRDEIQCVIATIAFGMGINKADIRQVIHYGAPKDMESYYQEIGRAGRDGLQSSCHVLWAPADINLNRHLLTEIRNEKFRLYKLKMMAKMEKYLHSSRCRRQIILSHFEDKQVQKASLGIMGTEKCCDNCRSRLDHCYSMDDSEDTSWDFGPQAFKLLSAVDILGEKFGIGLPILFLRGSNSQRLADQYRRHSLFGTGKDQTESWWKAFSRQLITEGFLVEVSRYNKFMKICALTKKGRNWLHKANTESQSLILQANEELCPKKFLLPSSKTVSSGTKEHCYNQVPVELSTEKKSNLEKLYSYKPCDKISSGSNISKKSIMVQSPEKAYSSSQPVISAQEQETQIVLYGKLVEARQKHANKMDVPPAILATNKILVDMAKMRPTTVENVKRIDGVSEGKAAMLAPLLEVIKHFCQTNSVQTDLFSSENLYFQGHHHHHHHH

With `CCc1c(N2CCN(C(=O)c3ncnc(C)c3O)[C@H]3CC[C@@H]32)c(=O)c2nn(-c3ccnc(OC)c3)nc2n1CC(=O)NC12CC(C3CCCC3)(C1)C2` [Compound I-195, N-{3-cyclopentylbicyclo[1.1.1]pentan-1-yl}-2-{5-ethyl-6-[(1S,6S)-5-(5-hydroxy-6-methylpyrimidine-4-carbonyl)-2,5-diazabicyclo[4.2.0]octan-2-yl]-2-(2-methoxypyridin-4-yl)-7-oxo-2H,4H,7H-[1,2,3]triazolo[4,5-b]pyridin-4-yl}acetamide] the EC50 ([1]; Homo sapiens) was ≤ 500 nM and the IC50 [2] was ≤ 5 nM.

`CCc1c(N2CCN(C(=O)c3c(OC)ncc(C)c3O)CC2)c(=O)c2nn(-c3ccnc(OC)c3)nc2n1CC(=O)NC1CC2(CCC2)C1` [Compound I-125, 2-{5-ethyl-6-[4-(4-hydroxy-2-methoxy-5-methylpyridine-3-carbonyl)piperazin-1-yl]-2-(2-methoxypyridin-4-yl)-7-oxo-2H,4H,7H-[1,2,3]triazolo[4,5-b]pyridin-4-yl}-N-{spiro[3.3]heptan-2-yl}acetamide] was tested, and the EC50 ([1]; Homo sapiens) was 500 to 2000 nM and the IC50 [2] was 5 to 50 nM.

With `CCc1c(N2CCN(C(=O)c3c(OC)ncc(F)c3O)[C@H]3CC[C@@H]32)c(=O)c2nn(-c3ccnc(OC)c3)nc2n1CC(=O)NC12CC(C(C)C)(C1)C2` [Compound I-177, 2-{5-ethyl-6-[(1S,6S)-5-(5-fluoro-4-hydroxy-2-methoxypyridine-3-carbonyl)-2,5-diazabicyclo[4.2.0]octan-2-yl]-2-(2-methoxypyridin-4-yl)-7-oxo-2H,4H,7H-[1,2,3]triazolo[4,5-b]pyridin-4-yl}-N-[3-(propan-2-yl)bicyclo[1.1.1]pentan-1-yl]acetamide] the EC50 ([1]; Homo sapiens) was ≤ 500 nM and the IC50 [2] was ≤ 5 nM.

With `CCc1c(N2CCN(C(=O)c3ncnc(C)c3O)[C@H]3CC[C@@H]32)c(=O)c2nn(C3=CCOCC3)nc2n1CC(=O)Nc1ccc(C(F)F)cc1F` [Compound I-154, N-[4-(difluoromethyl)-2-fluorophenyl]-2-[2-(3,6-dihydro-2H-pyran-4-yl)-5-ethyl-6-[(1S,6S)-5-(5-hydroxy-6-methylpyrimidine-4-carbonyl)-2,5-diazabicyclo[4.2.0]octan-2-yl]-7-oxo-2H,4H,7H-[1,2,3]triazolo[4,5-b]pyridin-4-yl]acetamide] the EC50 ([1]; Homo sapiens) was ≤ 500 nM and the IC50 [2] was 5 to 50 nM.

For `CCc1c(N2CCN(C(=O)c3ncc4c(c3O)OCC4)CC2)c(=O)c2nn(C3=CCOCC3)nc2n1CC(=O)Nc1ccc(C(F)(F)F)cc1Cl` [Compound I-109, N-[2-chloro-4-(trifluoromethyl)phenyl]-2-[2-(3,6-dihydro-2H-pyran-4-yl)-5-ethyl-6-(4-{7-hydroxy-2H,3H-furo[3,2-c]pyridine-6-carbonyl}piperazin-1-yl)-7-oxo-2H,4H,7H-[1,2,3]triazolo[4,5-b]pyridin-4-yl]acetamide], the EC50 ([1]; Homo sapiens) was ≤ 500 nM and the IC50 [2] was ≤ 5 nM.

For `CCc1c(N2CCN(C(=O)c3ncnc(C)c3O)[C@H]3CC[C@@H]32)c(=O)c2nn(-c3ccccn3)nc2n1CC(=O)NC12CC(C(C)C)(C1)C2` [Compound I-22, 2-(5-ethyl-6-((1S,6S)-5-(5-hydroxy-6-methylpyrimidine-4-carbonyl)-2,5-diazabicyclo[4.2.0]octan-2-yl)-7-oxo-2-(pyridin-2-yl)-2,7-dihydro-4H-[1,2,3]triazolo[4,5-b]pyridin-4-yl)-N-(3-isopropylbicyclo[1.1.1]pentan-1-yl)acetamide], the EC50 ([1]; Homo sapiens) was ≤ 500 nM and the IC50 [2] was 5 to 50 nM.

For `CCc1c(N2CCN(C(=O)c3c(OC)ncc(C)c3O)CC2)c(=O)c2nn(C3=CCOCC3)nc2n1CC(=O)NC12CC(C3CC3)(C1)C2` [Compound I-97, N-{3-cyclopropylbicyclo[1.1.1]pentan-1-yl}-2-[2-(3,6-dihydro-2H-pyran-4-yl)-5-ethyl-6-[4-(4-hydroxy-2-methoxy-5-methylpyridine-3-carbonyl)piperazin-1-yl]-7-oxo-2H,4H,7H-[1,2,3]triazolo[4,5-b]pyridin-4-yl]acetamide], the EC50 ([1]; Homo sapiens) was ≤ 500 nM and the IC50 [2] was 5 to 50 nM.

`CCc1c(N2CCN(C(=O)c3c(OC)ncc(C)c3O)CC2)c(=O)c2nn(-c3ccnc(OC)c3)nc2n1CC(=O)NC1CC2(CCCC2)C1` [Compound I-99, 2-{5-ethyl-6-[4-(4-hydroxy-2-methoxy-5-methylpyridine-3-carbonyl)piperazin-1-yl]-2-(2-methoxypyridin-4-yl)-7-oxo-2H,4H,7H-[1,2,3]triazolo[4,5-b]pyridin-4-yl}-N-{spiro[3.4]octan-2-yl}acetamide] showed an EC50 ([1]; Homo sapiens) of 500 to 2000 nM and an IC50 [2] of 5 to 50 nM.

`CCc1c(N2CCN(C(=O)c3c(O)ccc(C)c3OC)CC2)c(=O)c2nn(-c3ccnc(OC)c3)nc2n1CC(=O)NC12CC(C3CC3)(C1)C2` [Compound I-110, N-{3-cyclopropylbicyclo[1.1.1]pentan-1-yl}-2-{5-ethyl-6-[4-(6-hydroxy-2-methoxy-3-methylbenzoyl)piperazin-1-yl]-2-(2-methoxypyridin-4-yl)-7-oxo-2H,4H,7H-[1,2,3]triazolo[4,5-b]pyridin-4-yl}acetamide] showed an EC50 ([1]; Homo sapiens) of 500 to 2000 nM and an IC50 [2] of 5 to 50 nM.

`CCc1c(N2CCN(C(=O)c3ncnc(C)c3O)CC2)c(=O)c2nn(-c3ccnc(OC)c3)nc2n1CC(=O)NC12CC(C3CCC3)(C1)C2` [Compound I-140, N-{3-cyclobutylbicyclo[1.1.1]pentan-1-yl}-2-{5-ethyl-6-[4-(5-hydroxy-6-methylpyrimidine-4-carbonyl)piperazin-1-yl]-2-(2-methoxypyridin-4-yl)-7-oxo-2H,4H,7H-[1,2,3]triazolo[4,5-b]pyridin-4-yl}acetamide] was tested, and the EC50 ([1]; Homo sapiens) was ≤ 500 nM and the IC50 [2] was 5 to 50 nM.

For `CCc1c(N2CCN(C(=O)c3c(OC)ccc[n+]3[O-])CC2)c(=O)c2nn(C3=CCOCC3)nc2n1CC(=O)Nc1ccc(C(F)(F)F)cc1Cl` [Compound I-214, 2-{4-[4-({[2-chloro-4-(trifluoromethyl)phenyl]carbamoyl}methyl)-2-(3,6-dihydro-2H-pyran-4-yl)-5-ethyl-7-oxo-2H,4H,7H-[1,2,3]triazolo[4,5-b]pyridin-6-yl]piperazine-1-carbonyl}-3-methoxypyridin-1-ium-1-olate], the EC50 ([1]; Homo sapiens) was > 5000 nM and the IC50 [2] was 5 to 50 nM.

With `CCc1c(N2CCN(C(=O)c3c(OCCOC)ncc(C)c3O)CC2)c(=O)c2nn(-c3ccnc(OC)c3)nc2n1CC(=O)NC12CC(C(C)C)(C1)C2` [Compound I-45, 2-(5-ethyl-6-{4-[4-hydroxy-2-(2-methoxyethoxy)-5-methylpyridine-3-carbonyl]piperazin-1-yl}-2-(2-methoxypyridin-4-yl)-7-oxo-2H,4H,7H-[1,2,3]triazolo[4,5-b]pyridin-4-yl)-N-[3-(propan-2-yl)bicyclo[1.1.1]pentan-1-yl]acetamide] the EC50 ([1]; Homo sapiens) was ≤ 500 nM and the IC50 [2] was 5 to 50 nM.

With `CCc1c(N2CCN(C(=O)c3ncnc(C)c3O)C3CCC[C@H]32)c(=O)c2nn(-c3ccnc(OC)c3)nc2n1CC(=O)NC12CC(C(C)C)(C1)C2` (stereo in doubt) [Compound I-76, rel-2-{6-[(4aR,7aS)-4-(5-hydroxy-6-methylpyrimidine-4-carbonyl)-octahydro-1H-cyclopenta[b]pyrazin-1-yl]-5-ethyl-2-(2-methoxypyridin-4-yl)-7-oxo-2H,4H,7H-[1,2,3]triazolo[4,5-b]pyridin-4-yl}-N-[3-(propan-2-yl)bicyclo[1.1.1]pentan-1-yl]acetamide] the EC50 ([1]; Homo sapiens) was 500 to 2000 nM and the IC50 [2] was 5 to 50 nM.

`CCc1c(C2=CCN(C(=O)c3ncnc(C)c3O)C[C@H]2C)c(=O)c2nn(-c3ccnc(OC)c3)nc2n1CC(=O)NC12CC(C(C)C)(C1)C2` (single isomer, unassigned) [Compound I-80] was tested, and the EC50 ([1]; Homo sapiens) was ≤ 500 nM and the IC50 [2] was 5 to 50 nM.

For `CCc1c(N2CCN(C(=O)c3ncnc(C)c3O)[C@H]3CC[C@@H]32)c(=O)c2nn(-c3ccccn3)nc2n1CC(=O)NC12CC(C(C)C)(C1)C2` [Compound I-90, 2-{5-ethyl-6-[(1S,6S)-5-(5-hydroxy-6-methylpyrimidine-4-carbonyl)-2,5-diazabicyclo[4.2.0]octan-2-yl]-7-oxo-2-(pyridin-2-yl)-2H,4H,7H-[1,2,3]triazolo[4,5-b]pyridin-4-yl}-N-[3-(propan-2-yl)bicyclo[1.1.1]pentan-1-yl]acetamide], the EC50 [1] was ≤ 500 nM and the IC50 [2] was 5 to 50 nM.

With `CCc1c(N2CCN(C(=O)c3ncnc(C)c3O)[C@H]3CC[C@@H]32)c(=O)c2nn(-c3ccnc(OC)c3)nc2n1CC(=O)NC12CC(C3CC3)(C1)C2` [Compound I-30, N-{3-cyclopropylbicyclo[1.1.1]pentan-1-yl}-2-{5-ethyl-6-[(1S,6S)-5-(5-hydroxy-6-methylpyrimidine-4-carbonyl)-2,5-diazabicyclo[4.2.0]octan-2-yl]-2-(2-methoxypyridin-4-yl)-7-oxo-2H,4H,7H-[1,2,3]triazolo[4,5-b]pyridin-4-yl}acetamide] the EC50 [1] was ≤ 500 nM and the IC50 [2] was 5 to 50 nM.

For `CCc1c(N2CCN(C(=O)c3ncnc(C)c3O)[C@H]3CC[C@@H]32)c(=O)c2nn(C3=CCO[C@H](C)C3)nc2n1CC(=O)NC12CC(C3CC3)(C1)C2` (single isomer, unassigned) [Compound I-180], the EC50 ([1]; Homo sapiens) was ≤ 500 nM and the IC50 [2] was 5 to 50 nM.

`CCc1c(N2CCN(C(=O)c3c(OC)ncc(C)c3O)CC2)c(=O)c2nn(-c3ccnc(OC)c3)nc2n1CC(=O)NC12CC(CC(F)F)(C1)C2` [Compound I-121, N-[3-(2,2-difluoroethyl)bicyclo[1.1.1]pentan-1-yl]-2-{5-ethyl-6-[4-(4-hydroxy-2-methoxy-5-methylpyridine-3-carbonyl)piperazin-1-yl]-2-(2-methoxypyridin-4-yl)-7-oxo-2H,4H,7H-[1,2,3]triazolo[4,5-b]pyridin-4-yl}acetamide] gave an EC50 ([1]; Homo sapiens) of 500 to 2000 nM and an IC50 [2] of 5 to 50 nM.
